Data: patent US20240238417A1, “METHODS OF PRODUCING TUMOR VACCINES AND USES THEREOF” (priority 2021, published 2024)

Legend:
CT-26 cells = assay: XTT viability of CT-26 cells after direct gas exposure in 96-well plate; assay type: cell-based; details: Mus musculus, CT26; 50,000 ppm gNO for 10, 60, or 180 seconds; XTT after 24 hours
Source text: (§1) Tumor celllines: The mouse colon carcinoma cell line, CT26WT, was cloned from CT26, an N-nitroso-N-methylurethane-induced, undifferentiated colon carcinoma cell line. The mouse mammary tumor cell line, 4T1, is a 6-thioguanine resistant cell line. When injected into BALB/c mice, 4T1 spontaneously produces highly metastatic tumors that can metastasize to the lung, liver, lymph nodes and brain while the primary tumor is growing in situ. […] Panc 02.03 is a pancreatic adenocarcinoma epithelial cell line derived in 1995 from a primary tumor removed from the head-of-the-pancreas of […] with pancreatic adenocarcinoma. CT26, 4T1 and Panc 02.03 cell lines were grown in RPMI based media (ATCC 30-2001) supplemented with fetal bovine serum and pen-strep (both from Biological Industries). The LLC1/LU2 cell line was grown in DMEM based media (ATCC 30-2002) supplemented with fetal bovine serum and pen-strep (Biological industries). The B16.F10 cell lines was grown in DMEM based media (ATCC 30-2002) supplemented with fetal bovine serum and pen-strep (Biologicalindustries).
(§2) In vitro systems: One system involves a direct exposure of cancer cells to gNO in 96-well plate. Gaseous NO at 150 ppm-50,000 ppm was delivered at 0.3 LPM for 10 seconds—3 minutes. In another system, cancer cells were exposed to gNO in a box made of acrylic glass. […]

A549 cells = assay: XTT viability of A549 cells after direct gas exposure in 96-well plate; assay type: cell-based
Experimental: (§3) In vitro systems: One system involves a direct exposure of cancer cells to gNO in 96-well plate. Gaseous NO at 150 ppm-50,000 ppm was delivered at 0.3 LPM for 10 seconds—3 minutes. In another system, cancer cells were exposed to gNO in a box made of acrylic glass. Gaseous NO at 10,000-50,000 ppm was delivered at 0.9 LPM for 10 seconds—15 minutes.
(§4) The exposure of the cancer cells to gNO was done after removing the cell culture medium.
(§5) Immediately after gas exposure, cell culture medium was added, and the cells were incubated at a 37° C. and 5% CO2 incubator over-night. To test cell viability, XTT assay and Annexin V-Propidium Iodide assays were performed, according to known protocols.
A549 cells were prepared in RPMI medium and suspended in four 96-well plates. The wells were exposed to the gas by a tubing that was directed at each well for 10, 60 or 180 seconds. The diameter of the gas tubing used was about 25% of the diameter of each well. Three wells were used for each gas and exposure time. The plates were placed in a 5% CO2, 37° C. incubator for 15-18 hours and the viability of the cells was tested by XTT assay.

B16.F10 cells = assay: XTT viability of B16.F10 cells after gas exposure in chamber; assay type: cell-based; details: 10,000 ppm-25,000 ppm gNO for 3-15 minutes
Experimental: as §3, §4, §5
B16.F10 cells were prepared in DMEM medium and suspended in 96-well plates. The plates were placed inside an approx. 2 liter exposure chamber. The plates were exposed to the gas by filling the chamber with gNO for 10 seconds, or 1, 3, 9 or 15 minutes. After exposure, the plates were placed in a 5% CO2, 37° C. incubator for an overnight incubation and the viability of the cells was tested by XTT assay.

Panc02.03 cells = assay: XTT viability of Panc02.03 cells after gas exposure in chamber; assay type: cell-based; details: 10,000 ppm-25,000 ppm gNO for 1-15 minutes
Source text: as §1, §2

CT26 challenge tumor = assay: gNO, tumor excision and CT26 re-challenge: tumor take and survival; assay type: in vivo, mice; details: about 75 days
Experimental: CT26 tumor-bearing male mice were treated with 20,000 ppm and 50,000 ppm gNO intra-tumorally for 5 minutes. Fourteen days post gNO treatment, all tumors were excised. A week post surgery, all mice were re-challenged via a second inoculation of 5×10^5 CT26 cells, and tumor take and survival were monitored during about 75 days, as depicted in FIG. 21A.

[N]=O [gNO, nitric oxide]
viability at 50000 ppm (CT-26 cells): ~1% | viability of A549 cells (A549 cells; 4000, 10,000, or 50,000 ppm gNO for 10 seconds): 50%-84% | viability of A549 cells (A549 cells; 4000, 10,000, or 50,000 ppm gNO for 60 seconds): 65%-96% | viability of A549 cells (A549 cells; 4000, 10,000, or 50,000 ppm gNO for 180 seconds): 45%-62% | viability of B16.F10 cells (B16.F10 cells): less than 5% | viability of Panc02.03 cells (Panc02.03 cells): less than 5% | challenge tumor development (CT26 challenge tumor; 20,000 ppm and 50,000 ppm gNO 5 minutes, excision day 14, re-challenge a week post surgery): no tumor development | survival (CT26 challenge tumor; 50,000 ppm gNO 5 minutes, excision, re-challenge): 100%
